Several values for one entry are separate records, joined by “and”; a condition that tells them apart may be missing. Identical values can stand only once.
Test system: K24384-001-R-PDC complex spheroid viability
Assay: Anticancer human tumor K24384-001-R-PDC patient-derived pancreatic adenocarcinoma cell line growth inhibition
Conditions: for viability, T/C: stronger effect = lower value
In short: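 Complex spheroids of tumor cells with HUVEC and human MSCs, exposed to iadademstat combined with other agents. Each agent tested in half-log steps from near clinical Cmax (else 10 microM top), DMSO ≤0.25%.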

[1] = curve of first compound, second compound 0.1 µM
[2] = curve of first compound, second compound 0.316 µM
[3] = curve of first compound, second compound 1 µM
[4] = curve of first compound, second compound 3.16 µM
[5] = curve of first compound, second compound 10 µM
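Note: spheroids exposed to agents for seven days before luminescence viability reading.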
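Throughout, for viability, T/C: 100% = DMSO vehicle control viability.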

## CC(C)CC(NC(=O)C(Cc1ccccc1)NC(=O)c1cnccn1)B(O)O (stereo unspecified) + NC1CCC(NC2CC2c2ccccc2)CC1
[1]
  IC50: 0.000464 µM
[2]
  IC50: 0.000476 µM
[3]
  IC50: 0.00038 µM
[4]
  IC50: 0.000345 µM
[5]
  IC50: 0.000422 µM
Second compound 0.1 µM, first compound 0.000316 µM
  viability, T/C: 74%
Second compound 0.1 µM, first compound 0.001 µM
  viability, T/C: 1.78%
Second compound 0.1 µM, first compound 0.00316 µM
  viability, T/C: 0.23%
Second compound 0.1 µM, first compound 0.01 µM
  viability, T/C: 0.12%
Second compound 0.1 µM, first compound 0.0316 µM
  viability, T/C: 0.2%
Second compound 0.1 µM, first compound 0.1 µM
  viability, T/C: 0.23%
Second compound 0.316 µM, first compound 0.000316 µM
  viability, T/C: 76.5%
Second compound 0.316 µM, first compound 0.001 µM
  viability, T/C: 1.74%
Second compound 0.316 µM, first compound 0.00316 µM
  viability, T/C: 0.26%
Second compound 0.316 µM, first compound 0.01 µM
  viability, T/C: 0.08%
Second compound 0.316 µM, first compound 0.0316 µM
  viability, T/C: 0.76%
Second compound 0.316 µM, first compound 0.1 µM
  viability, T/C: 1.15%
Second compound 1 µM, first compound 0.000316 µM
  viability, T/C: 59.1%
Second compound 1 µM, first compound 0.001 µM
  viability, T/C: 2.07%
Second compound 1 µM, first compound 0.00316 µM
  viability, T/C: 0.15%
Second compound 1 µM, first compound 0.01 µM
  viability, T/C: 0.08%
Second compound 1 µM, first compound 0.0316 µM
  viability, T/C: 0.09%
Second compound 1 µM, first compound 0.1 µM
  viability, T/C: 0.19%
Second compound 3.16 µM, first compound 0.000316 µM
  viability, T/C: 53.9%
Second compound 3.16 µM, first compound 0.001 µM
  viability, T/C: 1.45%
Second compound 3.16 µM, first compound 0.00316 µM
  viability, T/C: 0.27%
Second compound 3.16 µM, first compound 0.01 µM
  viability, T/C: 0.11%
Second compound 3.16 µM, first compound 0.0316 µM
  viability, T/C: 0.12%
Second compound 3.16 µM, first compound 0.1 µM
  viability, T/C: 0.18%
Second compound 10 µM, first compound 0.000316 µM
  viability, T/C: 64.1%
Second compound 10 µM, first compound 0.001 µM
  viability, T/C: 8.36%
Second compound 10 µM, first compound 0.00316 µM
  viability, T/C: 2.45%
Second compound 10 µM, first compound 0.01 µM
  viability, T/C: 0.22%
Second compound 10 µM, first compound 0.0316 µM
  viability, T/C: 0.21%
Second compound 10 µM, first compound 0.1 µM
  viability, T/C: 0.3%

## NS(=O)(=O)OCC1CC(n2ccc3c(NC4CCc5ccccc54)ncnc32)CC1O (stereo unspecified) + NC1CCC(NC2CC2c2ccccc2)CC1
[1]
  IC50: 0.506 µM
[2]
  IC50: 0.517 µM
[3]
  IC50: 0.412 µM
[4]
  IC50: 0.445 µM
[5]
  IC50: 0.441 µM
Second compound 0.1 µM, first compound 0.00949 µM
  viability, T/C: 98.6%
Second compound 0.1 µM, first compound 0.03 µM
  viability, T/C: 138%
Second compound 0.1 µM, first compound 0.0949 µM
  viability, T/C: 125%
Second compound 0.1 µM, first compound 0.3 µM
  viability, T/C: 64.8%
Second compound 0.1 µM, first compound 0.949 µM
  viability, T/C: 38.5%
Second compound 0.1 µM, first compound 3 µM
  viability, T/C: 26.1%
Second compound 0.316 µM, first compound 0.00949 µM
  viability, T/C: 87.6%
Second compound 0.316 µM, first compound 0.03 µM
  viability, T/C: 142%
Second compound 0.316 µM, first compound 0.0949 µM
  viability, T/C: 144%
Second compound 0.316 µM, first compound 0.3 µM
  viability, T/C: 67.9%
Second compound 0.316 µM, first compound 0.949 µM
  viability, T/C: 34.1%
Second compound 0.316 µM, first compound 3 µM
  viability, T/C: 26.1%
Second compound 1 µM, first compound 0.00949 µM
  viability, T/C: 109%
Second compound 1 µM, first compound 0.03 µM
  viability, T/C: 138%
Second compound 1 µM, first compound 0.0949 µM
  viability, T/C: 124%
Second compound 1 µM, first compound 0.3 µM
  viability, T/C: 56.6%
Second compound 1 µM, first compound 0.949 µM
  viability, T/C: 37.8%
Second compound 1 µM, first compound 3 µM
  viability, T/C: 27.2%
Second compound 3.16 µM, first compound 0.00949 µM
  viability, T/C: 93.2%
Second compound 3.16 µM, first compound 0.03 µM
  viability, T/C: 138%
Second compound 3.16 µM, first compound 0.0949 µM
  viability, T/C: 118%
Second compound 3.16 µM, first compound 0.3 µM
  viability, T/C: 59.7%
Second compound 3.16 µM, first compound 0.949 µM
  viability, T/C: 37.1%
Second compound 3.16 µM, first compound 3 µM
  viability, T/C: 25.9%
Second compound 10 µM, first compound 0.00949 µM
  viability, T/C: 91.2%
Second compound 10 µM, first compound 0.03 µM
  viability, T/C: 116%
Second compound 10 µM, first compound 0.0949 µM
  viability, T/C: 95.7%
Second compound 10 µM, first compound 0.3 µM
  viability, T/C: 58.4%
Second compound 10 µM, first compound 0.949 µM
  viability, T/C: 31.9%
Second compound 10 µM, first compound 3 µM
  viability, T/C: 13.2%

## NC1CCC(NC2CC2c2ccccc2)CC1 (stereo unspecified)
Compound 0.316 µM
  viability, T/C: 83.6% and 74.8%
Compound alone, run of 02/15/2022
  IC50: > 10 µM

## COc1cc(Nc2ncc3c(n2)-c2ccc(Cl)cc2C(c2c(F)cccc2OC)=NC3)ccc1C(=O)O
Compound 0.00316 µM
  viability, T/C: 106% and 74.5%
Compound 0.01 µM
  viability, T/C: 94.8% and 78.3%
Compound 0.0316 µM
  viability, T/C: 85.9% and 62.4%
Compound 0.1 µM
  viability, T/C: 69.7% and 63.6%
Compound 0.316 µM
  viability, T/C: 79.4% and 69.7%
Compound 1 µM
  viability, T/C: 87.7% and 70.3%
Curve of compound
  IC50: > 1 µM

## CC1COCCN1c1cc(-c2ccnn2C)c2ccnc(-c3ccn[nH]3)c2n1 (stereo unspecified)
Compound 0.00316 µM
  viability, T/C: 64.7% and 53.9%
Compound 0.01 µM
  viability, T/C: 56.8% and 55.5%
Compound 0.0316 µM
  viability, T/C: 47.3% and 37.6%
Compound 0.1 µM
  viability, T/C: 46.8% and 42.9%
Compound 0.316 µM
  viability, T/C: 49.4% and 44.7%
Compound 1 µM
  viability, T/C: 38.1% and 38.2%
Curve of compound
  IC50: 0.0351 µM and 0.00859 µM

Source: PubChem BioAssay AID1918949 (Molecular Pharmacology Branch, DTP, NCI, 2023)
